Common to all, as to assay type: cell-based
Test [1] relates to A2780Cis (cisplatin-resistant human ovarian cancer). The test can be described thus: In vitro cytotoxicity, SRB assay, A2780Cis. The settings on record: Homo sapiens, A2780cis, read-out: IC50 (nM) A2780Cis. For orientation: Sulforhodamine B stains cellular protein and so reports cell mass.
The subject of test [2] is MV-4-11 (human biphenotypic leukaemia). The test can be described thus: In vitro cytotoxicity, MTT assay, MV-4-11. The settings on record: Homo sapiens, MV4-11, read-out: IC50 (nM) MV4-11. (In general: Tetrazolium assays rely on reduction of a dye to a coloured formazan, in cell work by metabolically active cells.)
Test [3] relates to PLC/PRF/5 (human liver cancer). In words: cells. The conditions noted are these: Table 4; PLC/PRF/5 human liver cancer cells; read-out: IC50 (nM) PLC/PRF/5.
Test [4] relates to MIA PaCa-2 (human pancreatic cancer). The test can be described thus: cells. The conditions noted are these: Table 4; MIA PaCa-2 human pancreatic cancer cells; read-out: IC50 (nM) MIA PaCa-2.
Test [5] deals with Hs294T (human melanoma). The test can be described thus: cells. The conditions noted are these: Hs 294T; Table 4; Hs294T human melanoma cells; read-out: IC50 (nM) Hs294T.

As for `CC[C@@H](C(=O)[C@@H](C)[C@@H](O)[C@H](C)[C@@H]1O[C@@H]([C@@H](CC)C(=O)O)CC[C@@H]1C)[C@H]1O[C@]2(C=C[C@@H](NC(=O)C(=O)NCCCn3ccnc3)[C@]3(CC[C@@](C)([C@H]4CC[C@](O)(CC)[C@H](C)O4)O3)O2)[C@H](C)C[C@@H]1C` [FLC-00392-1•Na], the IC50 in test [1] amounted to 3750 nM; in test [2], 1960 nM; in test [3], 8330 nM.
On to `CCCCCCCCCCCCCCCCOC(=O)N[C@@H]1C=C[C@]2(O[C@H]([C@@H](CC)C(=O)[C@@H](C)[C@@H](O)[C@H](C)[C@@H]3O[C@@H]([C@@H](CC)C(=O)O)CC[C@@H]3C)[C@@H](C)C[C@H]2C)O[C@@]12CC[C@@](C)([C@H]1CC[C@](O)(CC)[C@H](C)O1)O2` [FLC-00410-1•Na], for which the IC50 was found to be 7700 nM in test [1] and 3740 nM in test [2].
For the compound `CC[C@@H](C(=O)[C@@H](C)[C@@H](O)[C@H](C)[C@@H]1O[C@@H]([C@@H](CC)C(=O)O)CC[C@@H]1C)[C@H]1O[C@]2(C=C[C@@H](NC(=O)C(=O)NCCO)[C@]3(CC[C@@](C)([C@H]4CC[C@](O)(CC)[C@H](C)O4)O3)O2)[C@H](C)C[C@@H]1C` [FLC-00438-1•Na], the IC50 in test [1] is 2900 nM; in test [2], 2500 nM; in test [4], 6460 nM; in test [3], 7280 nM.
Regarding `CC[C@@H](C(=O)[C@@H](C)[C@@H](O)[C@H](C)[C@@H]1O[C@@H]([C@@H](CC)C(=O)O)CC[C@@H]1C)[C@H]1O[C@]2(C=C[C@@H](NC(=O)C(=O)NCCN)[C@]3(CC[C@@](C)([C@H]4CC[C@](O)(CC)[C@H](C)O4)O3)O2)[C@H](C)C[C@@H]1C` [FLC-00456-1•Na], the IC50 was found to be 2850 nM in test [1], 3430 nM in test [2], 8690 nM in test [5] and 7290 nM in test [3].
Take `CC[C@@H](C(=O)[C@@H](C)[C@@H](O)[C@H](C)[C@@H]1O[C@@H]([C@@H](CC)C(=O)O)CC[C@@H]1C)[C@H]1O[C@]2(C=C[C@@H](NC(=O)C(=O)NCCN3CCOCC3)[C@]3(CC[C@@](C)([C@H]4CC[C@](O)(CC)[C@H](C)O4)O3)O2)[C@H](C)C[C@@H]1C` [FLC-00465-1•Na]: the results for the IC50 in test [1] and in test [2] were 3070 nM and 3170 nM, respectively.
Turning to `CC[C@@H](C(=O)[C@@H](C)[C@@H](O)[C@H](C)[C@@H]1O[C@@H]([C@@H](CC)C(=O)O)CC[C@@H]1C)[C@H]1O[C@]2(C=C[C@@H](NC(=O)C(=O)NCCN(C)C)[C@]3(CC[C@@](C)([C@H]4CC[C@](O)(CC)[C@H](C)O4)O3)O2)[C@H](C)C[C@@H]1C` [FLC-00471-1•Na], the IC50 was determined as 4290 nM in test [1] and 4730 nM in test [2].
As to `CC[C@@H](C(=O)[C@@H](C)[C@@H](O)[C@H](C)[C@@H]1O[C@@H]([C@@H](CC)C(=O)O)CC[C@@H]1C)[C@H]1O[C@]2(C=C[C@@H](NC(=O)N3CCN(CC)C(=O)C3=O)[C@]3(CC[C@@](C)([C@H]4CC[C@](O)(CC)[C@H](C)O4)O3)O2)[C@H](C)C[C@@H]1C` [FLC-00518-1•Na], the IC50 came out at 3220 nM in test [1] and 3490 nM in test [2].
Take `CC[C@@H](C(=O)[C@@H](C)[C@@H](O)[C@H](C)[C@@H]1O[C@@H]([C@@H](CC)C(=O)O)CC[C@@H]1C)[C@H]1O[C@]2(C=C[C@@H](NC(=O)NCCCN(C)C)[C@]3(CC[C@@](C)([C@H]4CC[C@](O)(CC)[C@H](C)O4)O3)O2)[C@H](C)C[C@@H]1C` [FLC-00562-1•Na]: the IC50 in test [1] was found to be 3010 nM; in test [2], 3070 nM.
As for `CC[C@@H](C(=O)[C@@H](C)[C@@H](O)[C@H](C)[C@@H]1O[C@@H]([C@@H](CC)C(=O)O)CC[C@@H]1C)[C@H]1O[C@]2(C=C[C@@H](NC(=O)N(C)CCCN(C)C)[C@]3(CC[C@@](C)([C@H]4CC[C@](O)(CC)[C@H](C)O4)O3)O2)[C@H](C)C[C@@H]1C` [FLC-00563-1•Na], the IC50 in test [1] is 3120 nM; in test [2] it was 3250 nM.

The values above are taken from patent publication US20240294541A1, “COMPOUNDS CONSTITUTING C20-MODIFIED SALINOMYCIN DERIVATIVES, A METHOD FOR OBTAINING THE SAME, A COMPOSITION CONTAINING THE SAME AND A USE OF SAID COMPOUNDS” (FILECLO SPOLKA Z OGRANICZONA ODPOWIEDZIALNOSCIA, priority 2021, published 2024).
